Calls of active or inactive are those of the source. The rule behind the calls is not given here.
Tests used:
[1] = target: Human immunodeficiency virus type 1 reverse transcriptase (Human immunodeficiency virus 1, UniProt Q72547); assay: Inhibition of HIV1 reverse transcriptase activity after 1 hr by ELISA
HeLa = assay: Cytotoxicity against human HeLa cells up to 200 uM after 48 hrs by MTT assay

Structure (SMILES) | IC50 [1] [µM] | Activity (HeLa)
O=c1[nH]c(=O)n([C@@H]2O[C@H](CNCc3c(Cl)cccc3Cl)[C@@H](O)[C@H]2O)cc1F | 4.84 | inactive
O=c1ccn([C@@H]2O[C@H](CNCc3ccccc3Cl)[C@@H](O)[C@H]2O)c(=O)[nH]1 | 6.13 | inactive
O=c1ccn([C@@H]2O[C@H](CNCc3ccc(Cl)cc3)[C@@H](O)[C@H]2O)c(=O)[nH]1 | 2.82 | inactive
O=c1[nH]c(=O)n([C@@H]2O[C@H](CNCc3ccc(Cl)cc3)[C@@H](O)[C@H]2O)cc1F | 3.75 | inactive
O=c1ccn([C@@H]2O[C@H](CNCc3c(Cl)cccc3Cl)[C@@H](O)[C@H]2O)c(=O)[nH]1 | 4.72 | inactive
O=c1[nH]c(=O)n([C@@H]2O[C@H](CNCc3ccccc3Cl)[C@@H](O)[C@H]2O)cc1F | 3.53 | inactive
O=c1ccn([C@@H]2O[C@H](CNCc3c(F)cccc3Cl)[C@@H](O)[C@H]2O)c(=O)[nH]1 | 4.99 | inactive
O=c1[nH]c(=O)n([C@@H]2O[C@H](CNCc3c(F)cccc3Cl)[C@@H](O)[C@H]2O)cc1F | 3.9 | inactive
